Assay results taken from article PMC11475369, “Exploring the Potential of Synthetic Cannabinoids: Modulation of Biological Activity of Normal and Cancerous Human Colon Epithelial Cells” (Cells, 2024).
≈ marks a conversion by molar mass, not a printed value.

Experiments:
CCD 841 CoTr cells [1] = assay: Flow cytometry annexin V-FITC/PI, cell death types in CCD 841 CoTr cells; type: cell-based, human; settings: 25 μg/mL, 24 h
Description: (§1) In a further flow cytometric study measuring normal and tumor cell death types, the cells were exposed to the cannabinoids at a concentration of 25 μg/mL for 24 h.
(§2) The annexin V-fluorescein isothiocyanate (FITC)/propidium iodide (PI) apoptosis kit (BD Biosciences, BD Pharmingen™, San Jose, CA, USA) was used for the quantitative analysis of cannabinoid-induced cell death.
(§3) For the analyses, both adhered (after detaching the cells with 10 mM EDTA in PBS w/o Ca^2+ and Mg^2+ ions solution) and floating cells were collected after 24 h of incubation with the tested cannabinoids. After collection, the cells were gently centrifuged (1000 rpm/5 min.). Next, the supernatant was discarded, and the cell pellet was suspended in warm PBS w/o Ca^2+ and Mg^2+ ions and incubated for 5 min. at room temperature. The centrifugation procedure was repeated again and, following the manufacturer’s procedure, the cells were suspended in 100 μL of 1X Annexin V Binding Buffer with 5 μL of FITC Annexin V […] and 5 μL of propidium iodide (PI) (5 mM). The preparation was gently vortexed and incubated at room temperature for 15 min. in the dark. After that time, the cells were subjected to cytometric analysis. Before dosing the cells into the cytometer, 400 μL of 1X Binding Buffer was added. The cells were analyzed using a flow cytometer (BD FACSCalibur) with CellQuest Pro Version 6.0 software within 1 h after the staining was completed.

[2] = as above; type: cell-based, human; settings: human, CCD 841 CoTr cells (normal cells), read-out: Percentage of viable cells
Description: as §1, §2, §3

CCD 841 CoTr cells [3] = assay: Neutral Red (NR) uptake assay, viability of CCD 841 CoTr cells; type: cell-based; settings: Homo sapiens; CCD 841 CoTr colon normal cells, 24 h incubation
Description: (§4) The HT29 cell line (ATCC no. HTB-38) (human colon adenocarcinoma) was used in the present study. Cells were cultivated in RPMI 1640 culture medium with 10% fetal calf serum (FCS) (GibcoTM, Paisley, UK), supplemented with antibiotics (100 U/mL penicillin and 100 μg/mL streptomycin) (Sigma, St. Louis, MO, USA). The cell culture was performed in standard conditions, i.e., at 37 °C in a humidified atmosphere with 5% CO2. The CCD 841 CoTr cell line (ATCC no. CRL-1807) (human normal colon epithelium) was cultivated in RPMI 1640 +DMEM (1:1) medium (Sigma, St. Louis, MO, USA) with 10% FCS and the addition of antibiotics. The culture was carried out at 34 °C in a 5% CO2/95% air atmosphere.
(§5) After seeding (1 × 10^5 cells/mL) in a 96-well plate, the cells were incubated for 24 h. Thereafter, the tested compounds (100 μL) at a concentration range of 0–200 μg/mL in the culture medium were added to the wells (100 μL). The incubation lasted for 24 h. After that time, the culture medium was removed and a 0.4% Neutral Red solution in the culture medium was added to each well. The incubation was continued for another 3 h. After the incubation, the medium with the NR dye was discarded, and 4% paraformaldehyde in 1% CaCl2 was added for cell fixation (200 μL) and incubated for 3 min. Intracellular dye deposits were solubilized using 1% […] in a 50% ethanol solution (100 μL). The plates were then gently shaken (20 min.) at room temperature to dissolve and release the dye from the cells. Finally, spectrophotometric measurement was performed at 540 nm using an EL800 Universal Microplate Reader (BioTek Instruments, Winooski, VT, USA).

CCD 841 CoTr cells [4] = assay: Flow cytometry (PI) cell cycle analysis of CCD 841 CoTr cells; type: cell-based, human; settings: 25 μg/mL, 24 h
Description: In the flow cytometric study, we assessed the impact of the cannabinoids at a concentration of 25 μg/mL on the distribution of cell cycle phases in the normal and cancer cells after 24 h incubation. Both adhered, and non-adsorbed (floating) cells were used to perform the analyses. They were collected after 24 h of incubation with the tested cannabinoids and centrifuged (3000 rpm/5 min.). Next, the cell pellet was rinsed and suspended in PBS w/o Ca^2+ and Mg^2+ ions and centrifuged again (3000 rpm/5 min.). The cell pellet was suspended and fixed in 70% ethanol (1 mL). Untreated cells served as a control. The cells were stored at −20 °C for 1 week. After that time, in accordance with the manufacturer protocol, the cells were subjected to the PI staining procedure (PI/RNase Staining Buffer, BD PharmingenTM, BD Biosciences, San Jose, CA, USA). Briefly, 1 mL of PBS w/o Ca^2+ and Mg^2+ ions was added to 1 mL of ethanol and incubated with gentle stirring for 5 min. at room temperature. Next, the cells were centrifuged (3000 rpm/5 min.) and suspended in PBS w/o Ca^2+ and Mg^2+ ions with gentle stirring for 5 min. at room temperature. The cells were centrifuged once again (3000 rpm/5 min.) and the cell pellet was suspended in 500 μL of PI/RNase Staining Buffer. The incubation was carried out for 15 min. at room temperature. Finally, the intensity of the PI fluorescence was measured using FACS Calibur (BD Pharmingen^TM). The obtained data were analyzed using Cell Quest Pro Version 6.0. for the Macintosh operating system (BD Pharmingen^TM). The percentage of cells in the appropriate phases of the cycle was calculated based on all analyzed gated cells. A total of 10,000 events were measured per sample.

HT29 cells [5] = assay: Neutral Red (NR) uptake assay, viability of HT29 cells; type: cell-based; settings: Homo sapiens, HT-29; HT29 colon tumor cells, 24 h incubation
Description: as §4, §5

CCD 841 CoTr cells [6] = assay: MTT assay, metabolic activity of CCD 841 CoTr cells; type: cell-based, human; settings: Homo sapiens, CCD-841, 24 h, CCD 841 CoTr colon normal cells, 24 h incubation; read-out: IC50 Values (MTT method)
Description: as §4
(§6) After seeding (1 × 10^5 cells/mL) in a 96-well plate, the cells were incubated for 24 h. Thereafter, the tested compounds (100 μL) at a concentration range of 0–200 μg/mL in the culture medium were added to the wells (100 μL). The incubation lasted for 24 h. After that time, an MTT solution (5 mg/mL, 25 μL/well) was added to each well. The incubation was continued for another 3 h. After the incubation, 10% sodium dodecyl sulfate (SDS) in 0.01 M HCl (100 μL) was added in order to dissolve the purple formazan crystals. Solubilization was carried out overnight. Finally, spectrophotometric measurement was performed at 570 nm using an EL800 Universal Microplate Reader (BioTek Instruments, Winooski, VT, USA).

HT29 cells [7] = assay: MTT assay, metabolic activity of HT29 cells; type: cell-based; settings: Homo sapiens, HT-29; HT29 colon tumor cells, 24 h incubation; read-out: IC50 Values (MTT method)
Description: as §4, §6

CCD 841 CoTr cells [8] = assay: Nitric oxide (NOx) release in CCD 841 CoTr culture, Griess method; type: cell-based, human; settings: CCD 841 CoTr normal cells, 0–200 μg/mL, 24 h
Description: In this spectrophotometric method, the stable end products (nitrate and nitrite) were analyzed in the normal and tumor culture supernatants after 24 h of incubation of the cells with the cannabinoids in the concentration range of 0–200 μg/mL. The Griess reaction was applied. This method involves a 2-step reaction, whose product is a red-pink azo dye. The amount of this dye is directly proportional to the amount of NO. The cells were cultured for 24 h in 24-well plates (1 mL/well, density 1 × 10^5 cells/mL); next, after withdrawing the culture fluid, the tested cannabinoids were added to the wells at a volume of 1 mL/well and the incubation was carried out for another 24 h. After the incubation, the culture media were collected and frozen at −80 °C for no longer than 1 month. For calibration and quantitative analysis, the standard curve was prepared using 0.5–25 μM sodium nitrite (NaNO2). Thawed and centrifuged (5000 rpm/5 min.) supernatant samples and the standard were poured into a 96-well flat-bottomed plate at 100 µL/well. Each sample was analyzed in triplicate. Subsequently, 100 µL/well of Griess reagent (1% sulfanilamide/0.1% N-(1-naphthyl)ethylenediamine dihydrochloride) in 3% H3PO4 was added to all wells and incubated at room temperature for 10 min. Finally, the absorbance of the samples was spectrophotometrically read at 570 nm using an EL800 Universal Microplate Reader (BioTek Instruments, Winooski, VT, USA).

HT29 cells [9] = assay: Flow cytometry annexin V-FITC/PI, cell death types in HT29 cells; type: cell-based, human; settings: HT29, 25 μg/mL, 24 h
Description: as §1, §2, §3

Compound: C=C(C)[C@@H]1CCC(C)=C[C@H]1c1c(O)cc(CCCCC)cc1O [CBD, cannabidiol]
- Cells in late apoptosis, more than in the control (CCD 841 CoTr cells [1]): 11.36%
- Cells in necrosis, more than in the control (CCD 841 CoTr cells [1]): 1.43%
- Percentage of cells in early apoptosis (CCD 841 CoTr cells [1]): 1.97 ± 0.19%
- Percentage of cells in late apoptosis (CCD 841 CoTr cells [1]): 16.96 ± 1.26 %
- Percentage of cells in necrosis (CCD 841 CoTr cells [1]): 1.71 ± 0.28 %
- Reduction in the number of viable normal cells compared to the control (CCD 841 CoTr cells [1]): 12.95%
- viability at 24 h, 25 μg/mL [2]: 79.4 ± 1.18%
- IC50 (CCD 841 CoTr cells [3]): 48.2 µg/mL (≈ 153 µM)
- Increase in the number of cells in the sub-G1 phase compared to the control (CCD 841 CoTr cells [4]): 21.88%
- Percentage of cells in G1 phase (CCD 841 CoTr cells [4]): 21.89 ± 0.34 %
- Percentage of cells in G2 phase (CCD 841 CoTr cells [4]): 14.10 ± 0.19 %
- Percentage of cells in S phase (CCD 841 CoTr cells [4]): 16.39 ± 0.04 %
- Percentage of cells in sub-G1 phase (CCD 841 CoTr cells [4]): 44.01 ± 0.37 %
- IC50 (HT29 cells [5]): 60.5 µg/mL (≈ 192 µM)
- IC50 (CCD 841 CoTr cells [6]): 42.6 µg/mL (≈ 135 µM)
- IC50 (HT29 cells [7]): 57.5 µg/mL (≈ 183 µM)
- Effect on release of nitric oxide NOx (in words) (CCD 841 CoTr cells [8]): increase in NOx levels with increasing concentration
- Percentage of cells in early apoptosis (HT29 cells [9]): 0.77 ± 0.21%
- Percentage of cells in late apoptosis (HT29 cells [9]): 17.03 ± 0.29 %
- Percentage of cells in necrosis (HT29 cells [9]): 0.67 ± 0.22%
- Reduction in the number of viable cells compared to the control (HT29 cells [9]): 13.62%
- viability at 25 µg/mL (HT29 cells [9]; Homo sapiens, HT-29, read-out: Percentage of viable cells): 81.54 ± 0.28%
